US8729081B2, “Compositions and methods for treating alcohol use disorders, pain and other diseases” (VM Discovery Inc., priority 2008, dated 2014)

Biological target: T1, PKCε (h) (Homo sapiens, UniProt Q02156)
T1 construct: host or cells: insect cells
T1 sequence (Q02156 1-737): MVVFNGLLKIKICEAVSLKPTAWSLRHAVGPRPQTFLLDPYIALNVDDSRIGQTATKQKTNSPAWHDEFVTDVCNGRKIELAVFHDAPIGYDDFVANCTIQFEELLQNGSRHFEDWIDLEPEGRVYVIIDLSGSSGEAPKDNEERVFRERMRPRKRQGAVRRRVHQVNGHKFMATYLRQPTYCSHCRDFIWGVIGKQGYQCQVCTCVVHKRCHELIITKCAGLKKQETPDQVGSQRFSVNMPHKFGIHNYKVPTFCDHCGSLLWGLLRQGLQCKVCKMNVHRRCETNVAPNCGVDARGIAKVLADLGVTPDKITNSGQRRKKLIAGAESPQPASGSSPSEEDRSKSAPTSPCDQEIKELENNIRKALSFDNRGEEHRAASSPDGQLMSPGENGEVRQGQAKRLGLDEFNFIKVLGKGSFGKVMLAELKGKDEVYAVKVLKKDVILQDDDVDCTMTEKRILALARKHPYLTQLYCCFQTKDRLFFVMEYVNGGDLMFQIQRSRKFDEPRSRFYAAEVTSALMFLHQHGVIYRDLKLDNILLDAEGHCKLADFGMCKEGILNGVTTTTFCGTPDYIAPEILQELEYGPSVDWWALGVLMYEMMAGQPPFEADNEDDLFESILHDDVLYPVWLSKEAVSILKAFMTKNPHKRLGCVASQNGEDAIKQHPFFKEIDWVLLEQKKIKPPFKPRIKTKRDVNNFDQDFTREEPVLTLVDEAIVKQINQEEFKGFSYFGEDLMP
Assay: In vitro PKCε kinase assay (radiometric, [γ-33P-ATP], HotSpot)
Type: biochemical
Settings: recombinant human PKCε, 10 μM ATP; read-out: IC50 in antagonizing the PKCε
Description: There are many in vitro commercially available and validated bioassays (Ma, H., et al, Expert Opin Drug Discov. 2008 June; 3(6): 607-621 and references therein) which can be used to characterize the activities of compounds of the present invention against PKCε protein kinase. Compounds can be tested against the activity of recombinant PKCε. In a final reaction volume of 25 μL, PKCε (h) (0.4 nM, Human recombinant protein expressed in insect cells. Mw=83.7 kDa) is incubated with kinase buffer (20 mM HEPES-HCl, pH 7.5, 10 mM MgCl2, 1 mM EGTA, 0.02% Brij35, 0.1 mM Na3VO4, 0.02 mg/ml BSA, 2 mM DTT, and 1% DMSO), 0.1 mg/mL phosphatidylserine, 10 μg/mL diacylglycerol, 20 μM S25-PKC peptide substrate (RFARKGSLRQKNV-OH, Mw=1561 Da), 10 mM MgAcetate and 10 μM [γ-33P-ATP] (specific activity approx. 500 cpm/pmol). The reaction is initiated by the addition of the MgATP mix. After incubation for 40 minutes at room temperature, the reaction is stopped by the addition of 5 μL of a 3% phosphoric acid solution. 10 μL of the reaction is then spotted onto a P30 filtermat and washed three times for 5 minutes in 75 mM phosphoric acid and once in methanol prior to drying and scintillation counting Control samples are incubated without inhibitor to measure maximal activity or with the general kinase inhibitor Staurosporine (5 μM) to measure complete inhibition. For each compound the % inhibition can be calculated by the formula, or by curve fits: % Inhibition=(Max activity−Activity with compound)/(Max activity−Activity with Control)*100. Compounds with inhibitory activity are assayed using at least 5 concentrations (1 nM-300 μM). Concentrations are adjusted to generate a complete dose-response curve. Each sample is assayed in duplicate and each experiment is repeated three times. Results are fitted by non-linear regression analysis to a sigmoidal dose-response curve with variable slope to calculate Hill slope, log IC50 and Imax values for each inhibitor, using the program Prism 5 (GraphPad Software, Inc., San Diego, Calif.).
Kinase profiling was performed using HotSpot technology (Reaction Biology Corp. 11 Malvern, Pa., USA). This technology is a radioisotope-based P81 filter-binding assay. Compound of the present invention were dissolved in pure DMSO to make a 10 mM stock, then diluted in pure DMSO to make a serial dilution based on the IC50 ranges. PKCε (h) (0.4 nM, human recombinant protein expressed in insect cells. Mw=83.7 kDa) and substrate (20 μM peptide substrate, [RFARKGSLRQKNV]) were diluted in the reaction buffer (20 mM HEPES-HCl, pH 7.5, 10 mM MgCl2, 1 mM EGTA, 0.02% Brij35, 0.1 mM Na3VO4, 0.02 mg/ml BSA, 2 mM DTT, and 1% DMSO), and then 5 nL of compound was delivered into PKCε (h) and substrate mixture by acoustic technology using Echo 550 (LabCyte Inc., Sunnyvale, Calif.). The reaction was initiated by the addition of [γ-33P-ATP] into the reaction mixture (final concentration was 10 μM) and stopped after at least 40 min incubation at room temperature. The unreacted free 33P-ATP was washed away before detection.
The intrinsic PKCε antagonist activity of a compound which may be used in the present invention may be determined by these assays. […] Such a result is indicative of the intrinsic activity of the compounds in use as antagonists of PKCε.

Question: How did the IC50 turn out when `O=C(NCCCN1CCCC1)c1ccc(/C=C2\Sc3ccccc3N(Cc3ccccc3F)C2=O)cc1` [Compound 481, 4-{(Z/E)-[4-(2-fluorobenzyl)-3-oxo-3,4-dihydro-2H-1,4-benzothiazin-2-ylidene]methyl}-N-[3-(pyrrolidin-1-yl)propyl]benzamide] was run?
Answer: 10 to 1000 nM
